Experimental data from patent publication US20200155490A1, “IMMUNOMOUDULATORY AGENTS AND METHODS OF USE THEREOF” (priority 2016, published 2020).
“Also recorded” adds a separate entry of the source.

How the values were obtained:
[1] = system: bone marrow-derived macrophage (BMDM); test: Activation of BMDM with LPS or LPS+IFN-γ (cytokines, iNOS, HIF-1α); format: cell-based, mouse
Method: Cells were incubated with FcγR-blocking anti-CD16/32 (clone 93, Biolegend) before staining with antibodies to F4/80 (clone BM8, eBioscience) and CD11b (clone M1/70; BD Pharmingen) together with LIVE/DEAD dye (Invitrogen). […] Cells were acquired on a Canto II flow cytometer (BD Biosciences) and data were analyzed using FlowJo v.9.5.2 software (Tree Star).
(§1) The concentration of cytokines in culture supernatants was determined using the following kits according to manufacturer's instructions. DuoSet® kits for mouse IL-1β/IL-1F2, TNF-α and IL-6 (all R&D systems); mouse IL-12 ELISA MAX™ Deluxe Set (BioLegend); mouse IL-18 ELISA kit (MBL). Nitric oxide was quantified using Griess Reagent System (Promega).
(§2) BMDM were stimulated as indicated, washed with PBS, lysed in RIPA Lysis Buffer System (Santa Cruz) and boiled in sample loading buffer containing SDS and 100 mM DTT. Proteins were separated by electrophoresis through 4-20% polyacrylamide gradient gels (BioRad). After electrophoretic transfer of proteins onto PVDF membranes, nonspecific binding was blocked by incubation with 5% skim milk and membranes were probed with primary antibodies anti-IL1β (1:1000 dilution; 12507S, CellSignaling), NIrp3 (1:500 dilution; NBP2-12446, Novus), HIF-1α (1:500 dilution; NB100-449, Novus), α-tubulin (1:2000 dilution; 2125S, CellSignaling), ASC (1:1000 dilution; sc-22514-R, Santa Cruz) followed by incubation with secondary antibodies (horseradish peroxidase-conjugated anti-rabbit, 1:10,000 dilution; sc-2030, Santa Cruz) and visualized with Clarity™ western ECL substrate (Biorad).

[2] = system: NLRP3 inflammasome in BMDM; test: NLRP3 inflammasome activation in BMDM (LPS priming + ATP, nigericin or MSU); format: cell-based, mouse; details: for production of IL-18: then ATP 3 mM 45 min; for protein expression of pro-IL-1β: 0.25 mM 12 h
Method: as §1, §2

[3] = system: AIM2-inflammasome in BMDM; test: AIM2-inflammasome activation in BMDM (poly dA:dT transfection); format: cell-based, mouse; details: DI 12 h, 5 h
Method: as §1

[4] = system: BMDM infected with S. typhimurium; test: In vitro infection of BMDM with Salmonella typhimurium; format: cell-based, mouse
unstimulated BMDM = test: Extracellular flux analysis (Seahorse); format: cell-based, mouse; details: 0.25 mM DI 12 h
Method: Extracellular acidification rate (ECAR) and Oxygen Consumption rate (OCR) were measured in real time using Seahorse technology as described previously.

[5] = system: myocardial ischemia-reperfusion injury; test: Myocardial ischemia-reperfusion model; format: in vivo, mice; details: for myocardial infarct size: 30 min ischemia, 2 h reperfusion, intravenous infusion during ischemia
Method: In vivo ischemia-reperfusion modeling was performed as previously described. 8 to 10 week-old mice were anesthetized and subjected to an open chest procedure of reversible left anterior descending artery ligation for 30 min and subsequent reperfusion for 2 hours. Saline or DI (4 mg/Kg/min) was infused intravenously for 10 min before and throughout the ischemic period. A cardioplegic solution followed by TTC at 37° C. and then Evans Blue (after reocclusion of the LAD) was injected in a retrograde manner through the aorta in situ. The left ventricle was then sectioned into 5 slices and image analysis was performed with Image J (NIH).

[6] = system: mitochondrial ROS in BMDM; test: Measurement of mROS (MitoSOX) in BMDM; format: cell-based, mouse; details: 0.25 mM 12 h, LPS 100 ng/ml; MitoSOX flow cytometry
Method: Cells were incubated with DI (0.25 mM, 12 h) or vehicle and then loaded with 5 μM of the mitochondrial superoxide indicator MitoSOX (Invitrogen) at 37° C. for 30 min in HBSS supplemented with 0.1% BSA. Cells were then rinsed with warm culture medium and LPS treatment was started 1 h later. Cells were harvested and analyzed on a Canto II flow cytometer (Becton-Dickinson).

[7] = system: bone-marrow derived macrophages; test: Cell viability of bone-marrow derived macrophages; format: cell-based, mouse
Method: Live cells were determined via flow cytometry using a live/dead cell fluorescent dye. Shown are representative data from three independent experiments.
Cells were incubated with FcγR-blocking anti-CD16/32 (clone 93, Biolegend) before staining with antibodies to F4/80 (clone BM8, eBioscience) and CD11b (clone M1/70; BD Pharmingen) together with LIVE/DEAD dye (Invitrogen). Intracellular iNOS was detected with mouse anti-NOS2 (clone C-11, Santa Cruz Biotechnology) followed by incubation with fluorochrome-conjugated anti-mouse IgG (Clone A85-1, BD Pharmingen) using the BD cytofix/cytoperm Kit (BD Biosciences) according to manufacturer's instructions. Cells were acquired on a Canto II flow cytometer (BD Biosciences) and data were analyzed using FlowJo v.9.5.2 software (Tree Star).

[8] = system: naïve CD4 T cells under Th17 polarizing conditions; test: Th17 differentiation of naïve CD4 T cells; format: cell-based, C56BL/6 mice; details: for frequency of IL-17-producing cells (Th17 differentiation): Th17 polarizing conditions; for frequency of IL-17-producing cells (Th17 differentiation) / cytotoxic effect (frequency of live CD4 T cells): flow cytometry; for cytotoxic effect (frequency of live CD4 T cells): day 4 after Th17 polarization
Method: FIG. 25C is a series of plots showing DI inhibits also the secretion of IL-17 (left) and GM-CSF (right) in the supernatant of CD4 T cells. On day 4 cells were collected, washed, and re-stimulated in equal numbers for each condition with anti-CD3 and anti-CD28. After 24 h supernatants were collected and assayed for IL-17 and GM-CSF by ELISA.

[9] = system: anti-CD3-induced inflammation; test: Anti-CD3-induced inflammation in mice (serum IL-17); format: in vivo; details: 4 mg or 20 mg DI ip, 48 h after anti-CD3, ELISA
Method: FIG. 26A is a plot showing DI-treatment diminished in vivo systemic IL-17 production. Circulating serum IL-17 levels were determined by ELISA 48 h after anti-CD3-induced inflammation in mice treated or not with the indicated doses of DI. Briefly, mice were received intraperitoneal (ip) injections of 4 mg (n=10) or 20 mg (n=5) DI or vehicle (PBS; shown as 0; n=10) 3 h prior (−3 h) to an anti-CD3 injection (given at 0 h ip) and every 20 h thereafter until mice were analyzed at 48 h.

[10] = system: IMQ-induced skin inflammation; test: Imiquimod (IMQ)-induced psoriasis model; format: in vivo; details: mouse ear skin, 20 mg DI ip daily, IMQ cream 7 days
Method: IMQ cream (5%) was applied on mouse ear skin for 7 days and skin pathology was assessed on day 8. Mice received 20 mg DI ip. (DI+IMQ) or vehicle ip (PBS; IMQ) was administered one day prior to IMQ application and every day thereafter until day 7. DI group: received 20 mg DI as above but no IMQ; naïve mice received vehicle as above but no IMQ.

[11] = system: neonatal rat cardiac myocytes; test: Hypoxia modeling in neonatal rat cardiac myocytes; details: NRCMs, hypoxia 24 h, DI pretreatment
Method: Neonatal rat cardiac myocytes were isolated and cultured as described. Cells were subjected to hypoxia in an oxygen control cabinet (Coy Laboratories, Grass Lake, Mich.) mounted within an incubator and equipped with oxygen controller and sensor for continuous oxygen level monitoring. […] Cell death was assessed with the Live-Dead Cytotoxicity Viability kit for Mammalian cells (Invitrogen) and ROS generation was monitored by flow cytometric assessment of carboxy-H2DCFDA fluorescence (following incubation in 10 μmol/L for 30 minutes), as previously described.

[12] = system: bone marrow-derived macrophage (BMDM); test: RNA-seq transcriptional profiling of LPS-stimulated BMDM; details: for pro-inflammatory transcripts / inflammatory markers (Nos2, II6, II12b etc.): 0.25 mM 12 h pretreatment, LPS 100 ng/ml 4 h
[13] = biological target: T1, succinate dehydrogenase (Sdh) (Mus musculus, UniProt Q8K2B3); test: Sdh activity assay (Complex II Enzyme Activity Microplate Assay); format: biochemical; details: Sdh purified from BV2 cells or BMDM
T1 construct: Sdh was purified from BV2 cells (a macrophage cell line) or BMDM; endogenous in cells; host or cells: BV2 cells (macrophage cell line) or mouse BMDM; in-well capture with the Abcam Complex II Enzyme Activity Microplate Assay Kit
T1 sequence (Q8K2B3 43-664): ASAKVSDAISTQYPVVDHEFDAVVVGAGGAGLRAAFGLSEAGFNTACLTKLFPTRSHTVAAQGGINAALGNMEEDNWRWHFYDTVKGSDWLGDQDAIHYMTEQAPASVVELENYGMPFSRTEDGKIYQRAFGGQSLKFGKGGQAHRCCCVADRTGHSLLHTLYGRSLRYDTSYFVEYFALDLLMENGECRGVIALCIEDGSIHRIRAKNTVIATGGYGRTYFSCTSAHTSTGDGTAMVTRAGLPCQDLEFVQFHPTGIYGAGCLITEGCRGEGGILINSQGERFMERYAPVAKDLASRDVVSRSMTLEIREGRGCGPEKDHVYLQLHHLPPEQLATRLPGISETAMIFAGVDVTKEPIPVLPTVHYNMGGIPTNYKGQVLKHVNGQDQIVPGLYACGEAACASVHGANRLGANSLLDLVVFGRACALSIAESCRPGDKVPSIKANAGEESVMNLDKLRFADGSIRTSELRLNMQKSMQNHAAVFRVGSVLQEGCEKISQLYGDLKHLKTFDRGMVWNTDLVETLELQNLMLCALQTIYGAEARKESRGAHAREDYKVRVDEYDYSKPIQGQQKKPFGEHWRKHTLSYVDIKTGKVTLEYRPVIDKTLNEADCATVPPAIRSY
T1 sequence (Q9CQA3 31-282 partner): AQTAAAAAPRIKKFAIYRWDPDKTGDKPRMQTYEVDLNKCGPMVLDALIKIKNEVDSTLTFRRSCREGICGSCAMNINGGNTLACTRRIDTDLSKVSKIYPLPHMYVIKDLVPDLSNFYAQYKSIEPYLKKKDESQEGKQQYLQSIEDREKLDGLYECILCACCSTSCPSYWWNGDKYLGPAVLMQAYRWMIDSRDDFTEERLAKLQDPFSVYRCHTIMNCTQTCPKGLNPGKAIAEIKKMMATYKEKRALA
T1 sequence (Q9CZB0 30-169 partner): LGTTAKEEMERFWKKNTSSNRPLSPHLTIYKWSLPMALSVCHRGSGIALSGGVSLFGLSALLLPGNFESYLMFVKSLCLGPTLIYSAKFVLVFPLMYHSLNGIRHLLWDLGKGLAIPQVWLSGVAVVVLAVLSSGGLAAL
T1 sequence (Q9CXV1 57-159 partner): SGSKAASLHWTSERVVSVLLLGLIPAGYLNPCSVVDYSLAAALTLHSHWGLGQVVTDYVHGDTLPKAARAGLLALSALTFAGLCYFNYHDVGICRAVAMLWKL
Method: The test compounds were diluted in activity buffer and added to the phospholipid mixture 5 min before adding the activity solution. Absorbance was measured at 600 nm.

[14] = system: Mycobacterium tuberculosis (Mtb) H37Rv in BMDM; test: Infection of BMDM with Mycobacterium tuberculosis H37Rv; format: cell-based
Method: To address this question, BMMDs were infected with Mycobacterium tuberculosis (Mtb) H37Rv strain (MOI of 1). Three treatment groups were set up: untreated macrophages, macrophages pretreated with interferon, and macrophages pretreated with interferon and then treated with itaconate. The infection was then allowed to proceed for 7 days. On day 7 post infection, serial dilutions of infected BMDM homogenates were plated on 7H11 agar plates and colony forming unit (CFU) determined.

Salmonella infection = Salmonella infection in vivo; details: treated vs untreated mice; i.v. administration
[15] = BMDM pretreated with DI (12 h; 0.25 mM), LPS 24 h
[16] = 12 h pretreatment, LPS 100 ng/ml 4 h
[17] = Western blot, LPS 4 h, ATP 45 min
[18] = Western blot, DI 0.25 mM 12 h, LPS 4 h, ATP 45 min
[19] = BMDM pre-treated with 0.25 mM DI 12 h, infected with live S. typhimurium
[20] = day 4 cells re-stimulated with anti-CD3 and anti-CD28, 24 h, ELISA

SMILES: C=C(CC(=O)OC)C(=O)OC [DI, dimethyl itaconate]
- IL-12p70 secretion ([1]; BMDM pretreated with DI 12 h, then LPS and IFN-γ 24 h): suppressed
- IL-6 secretion [1, 15]: suppressed
- TNF-α production [1, 15]: remained unchanged
- iNOS protein expression ([1]; BMDM pretreated with DI (12 h; 0.25 mM), then LPS and IFN-γ 24 h, flow cytometry): suppressed
- production of IL-18 [2, 16]: potently inhibited
- production of mature IL-1β ([2]; 12 h pretreatment, LPS 100 ng/ml 4 h, then ATP, nigericin or MSU): potently inhibited
- inflammasome-induced cytotoxicity ([2]; DI 0.25 mM 12 h, LPS 4 h, ATP 3 mM 45 min, live/dead dye): only moderately
- protein expression of pro-IL-1β [2, 17]: decreased
- protein expression of ASC [2, 18]: decreased
- protein expression of NLRP3 [2, 18]: decreased
- IL-1β production following AIM-2-dependent inflammasome activation [3]: impaired
- TNF-α levels [4, 19]: only marginally affected
- production of IL-1β [4, 19]: virtually abrogated
- production of IL-6 [4, 19]: virtually abrogated
- production of nitric oxide (NO) [4, 19]: virtually abrogated
- number of intracellular bacteria ([4]; DI-treated vs control BMDM, S. typhimurium): comparable
- extracellular acidification rate (ECAR) (unstimulated BMDM): increased
- area-at-risk ([5]; DI vs saline group): similar
- myocardial infarct size ([5]; mice): markedly reduced
- reduction in infarct size ([5]; mice, DI 4 mg/Kg/min i.v. 10 min before and throughout ischemia): 42%
- LPS-induced upregulation of mROS [6]: impaired
- concentration up to which not toxic [7]: up to 0.5 mM
- frequency of IL-17-producing cells (Th17 differentiation) [8]: dose-dependently inhibits
- cytotoxic effect (frequency of live CD4 T cells) [8]: moderate dose-dependent cytotoxic effect
- secretion of GM-CSF [8, 20]: inhibits
- secretion of IL-17 [8, 20]: inhibits
- in vivo systemic IL-17 production (circulating serum IL-17) [9]: diminished
- dermal edema ([10]; H&E day 8): prevents dermal edema
- IL-17 associated pathology ([10]; assessed day 8): limits IL-17 associated pathology
- hypoxia-induced cell death [11]: dose-dependent protection
- hypoxia-induced increase in ROS generation [11]: attenuated
- pro-inflammatory transcripts / inflammatory markers (Nos2, II6, II12b etc.) [12]: down-regulation
- expression of LPS-regulated genes involved in inflammasome function (II1b, II18, P2rx7, Casp1, Pycard) ([12]; DI 0.25 mM 12 h, LPS 4 h): modulated

SMILES: COC(=O)CC(=O)OC [dimethyl malonate, reference compound]
- production of IL-18 [2, 16]: inhibited

SMILES: C=C(CC(=O)O)C(=O)O [itaconate, itaconic acid]
- protein expression of pro-IL-1β [2, 17]: significantly decreased
- activity of purified Sdh [13]: blocked the activity of Sdh in a dose-dependent manner
- myocardial infarct size ([5]; mice): reduces infarct size
- LPS-induced upregulation of mROS [6]: impaired
- bacterial burden in the cells (CFU) ([14]; BMDM pretreated with interferon, Mtb MOI of 1, day 7 post infection): increased
- II1b levels in the supernatants ([14]; Mtb-infected BMDM, data not shown): decreased
- frequency of IL-17-producing cells (Th17 differentiation) [8]: dose-dependently inhibits
- inhibition of Th17 compared with structurally similar dicarboxylic acids ([8]; all acids at 5 mM, day 3 post polarization): structure specific
- cytotoxic effect (frequency of live CD4 T cells) [8]: not cytotoxic
- mortality from Salmonella infection (Salmonella infection): succumb to Salmonella infection faster; also recorded: significantly accelerates mortality
- pro-inflammatory transcripts / inflammatory markers (Nos2, II6, II12b etc.) [12]: significantly decreased

SMILES: O=C(O)CC(=O)O [malonate, reference compound]
- activity of purified Sdh [13]: blocked the activity of Sdh in a dose-dependent manner
- myocardial infarct size ([5]; mice): reduces infarct size
